Data published in paper PMC6151531, “Development of a Non-Hydroxamate Dual Matrix Metalloproteinase (MMP)-7/-13 Inhibitor” (Molecules : A Journal of Synthetic Chemistry and Natural …, 2017).
Where “and” joins values, the source holds several entries; their conditions need not be identical. Equal entries are not always repeated. Where two headings read alike, the source gives them in different places. Each block holds one compound with its values, some of them ahead of it.

Tests used:
MMP-13 = MMP-13 (Homo sapiens, UniProt P45452); assay: MMP-13 FRET peptide enzyme assay (single dose 10 μM and IC50); format: biochemical; settings: for activity at 10 µM: remaining enzyme activity at 10 μM inhibitor concentration; for activity at 10 µM / IC50: measured in duplicate
MMP-7 [1] = target: T1, MMP-7 (Homo sapiens, UniProt P09237); assay: MMP-7 FRET peptide enzyme assay (single dose 10 μM and IC50); settings: for activity at 10 µM: read-out: % Activity MMP-7; for IC50: IC50 MMP-7, measured in duplicate
T1 sequence (P09237 95-267): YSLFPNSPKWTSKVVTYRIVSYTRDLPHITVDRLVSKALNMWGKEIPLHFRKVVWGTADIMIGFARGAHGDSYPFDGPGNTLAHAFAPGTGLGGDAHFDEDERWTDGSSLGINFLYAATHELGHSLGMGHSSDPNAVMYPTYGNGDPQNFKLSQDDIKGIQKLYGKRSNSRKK

MMP-7 [2] = target: T1, MMP-7; settings: cited from earlier work
MMP-9 [3] = target: T2, MMP-9 (Homo sapiens, UniProt P14780); settings: 10 µM inhibitor concentration; cited from earlier work
MMP-3 [4] = target: T3, MMP-3 (Homo sapiens, UniProt P08254); settings: 10 µM inhibitor concentration; cited from earlier work
MMP-14 [5] = target: T4, MMP-14 (Homo sapiens, UniProt P50281); settings: 10 µM inhibitor concentration; cited from earlier work
MMP-1 [6] = target: T5, MMP-1 (Homo sapiens, UniProt P03956); settings: 10 µM inhibitor concentration; cited from earlier work
T5 sequence (P03956 100-469): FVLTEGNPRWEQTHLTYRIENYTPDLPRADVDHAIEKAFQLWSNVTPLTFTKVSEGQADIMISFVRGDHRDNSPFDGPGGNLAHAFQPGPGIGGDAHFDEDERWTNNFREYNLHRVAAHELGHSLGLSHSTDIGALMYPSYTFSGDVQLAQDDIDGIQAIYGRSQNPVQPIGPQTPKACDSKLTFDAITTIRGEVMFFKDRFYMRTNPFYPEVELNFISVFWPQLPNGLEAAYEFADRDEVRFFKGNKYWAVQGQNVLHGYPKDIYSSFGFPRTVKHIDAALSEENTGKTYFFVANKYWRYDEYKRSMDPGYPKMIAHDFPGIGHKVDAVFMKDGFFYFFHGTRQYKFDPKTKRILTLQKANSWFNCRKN

MMP-12 [7] = target: T6, MMP-12 (Homo sapiens, UniProt P39900); settings: 10 µM inhibitor concentration; cited from earlier work
MMP-7 [8] = target: T1, MMP-7; settings: 10 µM inhibitor concentration; cited from earlier work
MMP-8 [9] = target: T7, MMP-8 (Homo sapiens, UniProt P22894); settings: 10 µM inhibitor concentration; cited from earlier work
MMP-2 [10] = target: T8, MMP-2 (Homo sapiens, UniProt P08253); settings: 10 µM inhibitor concentration; cited from earlier work
T8 sequence (P08253 110-660): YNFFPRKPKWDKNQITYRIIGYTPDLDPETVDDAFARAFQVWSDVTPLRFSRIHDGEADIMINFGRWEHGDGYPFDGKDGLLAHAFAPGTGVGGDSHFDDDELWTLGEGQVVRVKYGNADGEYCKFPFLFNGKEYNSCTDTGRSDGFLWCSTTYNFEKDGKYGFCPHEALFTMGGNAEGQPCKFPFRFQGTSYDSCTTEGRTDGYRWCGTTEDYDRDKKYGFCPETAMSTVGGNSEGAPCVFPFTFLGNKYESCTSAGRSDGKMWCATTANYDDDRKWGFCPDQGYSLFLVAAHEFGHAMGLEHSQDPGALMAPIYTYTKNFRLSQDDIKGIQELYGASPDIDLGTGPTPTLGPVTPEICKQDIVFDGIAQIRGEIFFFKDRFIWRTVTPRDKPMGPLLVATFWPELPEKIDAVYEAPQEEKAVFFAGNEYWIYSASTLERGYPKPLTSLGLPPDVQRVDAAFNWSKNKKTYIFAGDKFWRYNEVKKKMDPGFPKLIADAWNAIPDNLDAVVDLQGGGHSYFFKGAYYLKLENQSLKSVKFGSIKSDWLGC

MMP-2 [11] = target: T8, MMP-2; assay: MMP-2 single dose selectivity assay; settings: read-out: Remaining enzymatic activity MMP-2
MMP-1 [12] = target: T5, MMP-1; assay: MMP-1 single dose selectivity assay; settings: read-out: Remaining enzymatic activity MMP-1
MMP-12 [13] = target: T6, MMP-12; assay: MMP-12 single dose selectivity assay; settings: read-out: Remaining enzymatic activity MMP-12
MMP-8 [14] = target: T7, MMP-8; assay: MMP-8 single dose selectivity assay; settings: read-out: Remaining enzymatic activity MMP-8
MMP-14 [15] = target: T4, MMP-14; assay: MMP-14 single dose selectivity assay; settings: read-out: Remaining enzymatic activity MMP-14
MMP-3 [16] = target: T3, MMP-3; assay: MMP-3 single dose selectivity assay; settings: read-out: Remaining enzymatic activity MMP-3
MMP-9 [17] = target: T2, MMP-9; assay: MMP-9 single dose selectivity assay; settings: read-out: Remaining enzymatic activity MMP-9

T2 sequence (P14780 94-707): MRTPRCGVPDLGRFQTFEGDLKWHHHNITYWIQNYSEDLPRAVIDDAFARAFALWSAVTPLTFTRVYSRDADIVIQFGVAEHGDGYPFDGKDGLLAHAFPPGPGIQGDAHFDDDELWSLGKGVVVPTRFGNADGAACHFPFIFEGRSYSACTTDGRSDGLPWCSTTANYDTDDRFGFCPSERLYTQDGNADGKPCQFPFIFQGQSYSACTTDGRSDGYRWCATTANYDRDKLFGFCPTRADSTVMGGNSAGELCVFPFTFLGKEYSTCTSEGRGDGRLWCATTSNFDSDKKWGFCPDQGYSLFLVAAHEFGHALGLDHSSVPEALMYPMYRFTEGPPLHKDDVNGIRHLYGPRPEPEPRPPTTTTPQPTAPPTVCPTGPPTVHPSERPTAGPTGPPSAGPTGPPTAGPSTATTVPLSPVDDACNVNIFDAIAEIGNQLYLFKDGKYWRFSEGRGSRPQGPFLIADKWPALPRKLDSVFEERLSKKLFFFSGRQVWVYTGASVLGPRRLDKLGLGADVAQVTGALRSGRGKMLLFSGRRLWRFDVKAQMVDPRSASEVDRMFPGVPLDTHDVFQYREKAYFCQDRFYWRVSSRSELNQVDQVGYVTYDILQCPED
T7 sequence (P22894 101-467): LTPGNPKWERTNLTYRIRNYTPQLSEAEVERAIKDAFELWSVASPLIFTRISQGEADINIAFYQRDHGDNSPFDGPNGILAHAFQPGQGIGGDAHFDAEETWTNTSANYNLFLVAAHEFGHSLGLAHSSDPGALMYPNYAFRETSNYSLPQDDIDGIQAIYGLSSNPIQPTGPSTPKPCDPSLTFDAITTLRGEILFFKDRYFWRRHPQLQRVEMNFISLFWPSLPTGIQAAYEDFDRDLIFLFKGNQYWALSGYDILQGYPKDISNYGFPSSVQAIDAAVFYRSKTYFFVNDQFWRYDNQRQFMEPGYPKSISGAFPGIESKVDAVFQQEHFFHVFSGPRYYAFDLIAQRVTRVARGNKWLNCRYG
T6 sequence (P39900 106-470): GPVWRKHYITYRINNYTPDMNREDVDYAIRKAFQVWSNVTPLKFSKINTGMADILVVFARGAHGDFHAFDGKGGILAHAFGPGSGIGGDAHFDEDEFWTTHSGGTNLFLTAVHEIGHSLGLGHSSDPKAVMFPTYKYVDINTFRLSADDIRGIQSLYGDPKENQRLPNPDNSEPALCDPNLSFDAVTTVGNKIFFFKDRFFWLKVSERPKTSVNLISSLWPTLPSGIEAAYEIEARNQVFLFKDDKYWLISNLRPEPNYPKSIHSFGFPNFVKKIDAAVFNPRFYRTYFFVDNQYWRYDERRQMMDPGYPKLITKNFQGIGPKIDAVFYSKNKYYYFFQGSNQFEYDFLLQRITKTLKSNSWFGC
T3 sequence (P08254 100-477): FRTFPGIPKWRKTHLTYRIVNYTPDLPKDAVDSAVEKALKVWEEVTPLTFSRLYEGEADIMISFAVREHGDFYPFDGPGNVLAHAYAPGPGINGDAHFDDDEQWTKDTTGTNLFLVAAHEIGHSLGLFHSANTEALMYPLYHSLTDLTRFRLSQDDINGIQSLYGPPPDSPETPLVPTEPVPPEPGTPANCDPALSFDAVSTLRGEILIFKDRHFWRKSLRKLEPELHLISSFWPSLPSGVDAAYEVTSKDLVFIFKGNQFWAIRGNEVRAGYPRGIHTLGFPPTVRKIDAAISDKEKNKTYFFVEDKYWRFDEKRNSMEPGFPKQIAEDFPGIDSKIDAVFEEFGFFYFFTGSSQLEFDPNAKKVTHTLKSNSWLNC

SMILES: O=C(O)CCCCCOc1ccc(CC(=O)Nc2ccc3c(c2)C(=O)N(Cc2ccccc2)C3=O)cc1 [Compound 14f, 6-(4-{[(2-Benzyl-1,3-dioxo-2,3-dihydro-1H-isoindol-5-yl)carbamoyl]methyl}phenoxy)hexanoic acid]
activity at 10 µM (MMP-13): 2.5 ± 0.1% | activity at 10 µM (MMP-7 [1]): 59.4 ± 0.2%

SMILES: O=C(O)C(Cc1c[nH]c2ccccc12)NS(=O)(=O)c1ccc(Cl)c(C(F)(F)F)c1 (stereo not shown) [Compound 3]
selectivity over MMP-1 (MMP-7 [2]; MMP-7 over MMP-1): 10 fold | selectivity over MMP-14 (MMP-7 [2]; MMP-7 over MMP-14): 10 fold | IC50 (MMP-7 [2]): 10000 nM

SMILES: O=C(O)CCOc1ccc(CC(=O)Nc2ccc3c(c2)C(=O)N(Cc2ccccc2)C3=O)cc1 [Compound 14c, 3-(4-{[(2-Benzyl-1,3-dioxo-2,3-dihydro-1H-isoindol-5-yl)carbamoyl]methyl}phenoxy)propanoic acid]
activity at 10 µM (MMP-13): 35.8 ± 5.1% | activity at 10 µM (MMP-7 [1]): 93.1 ± 1.7%

SMILES: O=C(O)CCCCCCCOc1ccc(CC(=O)Nc2ccc3c(c2)C(=O)N(Cc2ccccc2)C3=O)cc1 [Compound 14h, 8-(4-{[(2-Benzyl-1,3-dioxo-2,3-dihydro-1H-isoindol-5-yl)carbamoyl]methyl}phenoxy)octanoic acid]
IC50 (MMP-13): 1670 ± 429 nM | activity at 10 µM (MMP-13): 16 ± 0.14% | IC50 (MMP-7 [1]): 3180 ± 249 nM | activity at 10 µM (MMP-7 [1]): 25.9 ± 0.5%

SMILES: O=C(O)CCCCOc1ccc(CC(=O)Nc2ccc3c(c2)C(=O)N(Cc2ccccc2)C3=O)cc1 [Compound 14e, 5-(4-{[(2-Benzyl-1,3-dioxo-2,3-dihydro-1H-isoindol-5-yl)carbamoyl]methyl}phenoxy)pentanoic acid]
activity at 10 µM (MMP-7 [1]): 93.2 ± 3.3%

SMILES: O=C(O)COc1ccc(CC(=O)Nc2ccc3c(c2)C(=O)N(Cc2ccccc2)C3=O)cc1 [Compound 14b, 2-(4-{[(2-Benzyl-1,3-dioxo-2,3-dihydro-1H-isoindol-5-yl)carbamoyl]methyl}phenoxy)acetic acid]
activity at 10 µM (MMP-13): 58.7 ± 2.7% | activity at 10 µM (MMP-7 [1]): 89.9 ± 10%

SMILES: O=C(O)CCCOc1ccc(CC(=O)Nc2ccc3c(c2)C(=O)N(Cc2ccccc2)C3=O)cc1 [Compound 14d, 4-(4-{[(2-Benzyl-1,3-dioxo-2,3-dihydro-1H-isoindol-5-yl)carbamoyl]methyl}phenoxy)butanoic acid]
activity at 10 µM (MMP-13): 2.6 ± 1.3% | activity at 10 µM (MMP-7 [1]): 91.3 ± 0.4%

SMILES: CN1C(=O)c2ccc(NC(=O)Cc3ccc(OCCCCC(=O)O)cc3)cc2C1=O [Compound 14a, 5-(4-{[(2-Methyl-1,3-dioxo-2,3-dihydro-1H-isoindol-5-yl)carbamoyl]methyl}phenoxy)pentanoic acid]
activity at 10 µM (MMP-13): 23.7 ± 3.3% | inhibition of MMP-7 (in words) (MMP-7 [1]; discussion of structure activity relationship): total loss of inhibition | activity at 10 µM (MMP-7 [1]): 100 ± 4.4%

SMILES: O=C(O)CCCCCCOc1ccc(CC(=O)Nc2ccc3c(c2)C(=O)N(Cc2ccccc2)C3=O)cc1 [Compound 14g, 7-(4-{[(2-Benzyl-1,3-dioxo-2,3-dihydro-1H-isoindol-5-yl)carbamoyl]methyl}phenoxy)heptanoic acid]
IC50 (MMP-13): 150 ± 31 nM | activity at 10 µM (MMP-13): 1 ± 0.1% | activity at 10 µM (MMP-7 [1]): 53.8 ± 0.8%

SMILES: O=C(O)CCCCOc1ccc(CC(=O)Nc2ccc3c(c2)C(=O)N(Cc2ccc(F)cc2)C3=O)cc1 [Compound 5, 5-{4-[({2-[(4-Fluorophenyl)methyl]-1,3-dioxo-2,3-dihydro-1H-isoindol-5-yl}carbamoyl)methyl]-phenoxy}pentanoic acid]
Remaining enzymatic activity MMP-9 (MMP-9 [3]): 100% | Remaining enzymatic activity MMP-3 (MMP-3 [4]): 100% | selectivity for MMP-13 over MMP-7 (MMP-13; from IC50-values): > 2600 fold | Remaining enzymatic activity MMP-14 (MMP-14 [5]): 100% | Remaining enzymatic activity MMP-1 (MMP-1 [6]): 100% | Remaining enzymatic activity MMP-12 (MMP-12 [7]): 91% | Remaining enzymatic activity MMP-7 (MMP-7 [8]): 68% | Remaining enzymatic activity MMP-8 (MMP-8 [9]): 97% | Remaining enzymatic activity MMP-2 (MMP-2 [10]): 100% | IC50 (MMP-7 [1]): 15700 nM and 15600 nM | activity at 10 µM (MMP-7 [1]): 67.5 ± 2.6%

Continued, values first:

IC50 (MMP-13): 361 ± 52 nM | activity at 10 µM (MMP-13): 3.6 ± 1.1% | activity at 10 µM (MMP-7 [1]): 85.1 ± 2.2%
SMILES: O=C(O)CCCOc1ccc(CC(=O)Nc2ccc3c(c2)C(=O)N(Cc2ccc(F)cc2)C3=O)cc1 [Compound 14l, 4-{4-[({2-[(4-Fluorophenyl)methyl]-1,3-dioxo-2,3-dihydro-1H-isoindol-5-yl}carbamoyl)methyl]-phenoxy}butanoic acid]

activity at 10 µM (MMP-13): 34.6 ± 2.3% | activity at 10 µM (MMP-7 [1]): 64.5 ± 3.7%
SMILES: O=C(O)CCCCCCCOc1ccc(CC(=O)Nc2ccc3c(c2)C(=O)N(Cc2ccc(F)cc2)C3=O)cc1 [Compound 14o, 8-{4-[({2-[(4-Fluorophenyl)methyl]-1,3-dioxo-2,3-dihydro-1H-isoindol-5-yl}carbamoyl)methyl]-phenoxy}octanoic acid]

activity at 10 µM (MMP-13): 1.2 ± 0.1% | activity at 10 µM (MMP-7 [1]): 69.2 ± 0.1%
SMILES: O=C(O)CCCCCOc1ccc(CC(=O)Nc2ccc3c(c2)C(=O)N(Cc2ccc(F)cc2)C3=O)cc1 [Compound 14m, 6-{4-[({2-[(4-Fluorophenyl)methyl]-1,3-dioxo-2,3-dihydro-1H-isoindol-5-yl}carbamoyl)methyl]-phenoxy}hexanoic acid]

activity at 10 µM (MMP-13): 1.9 ± 0.5% | activity at 10 µM (MMP-7 [1]): 47.5 ± 5.1%
SMILES: O=C(O)CCCCCCOc1ccc(CC(=O)Nc2ccc3c(c2)C(=O)N(Cc2ccc(F)cc2)C3=O)cc1 [Compound 14n, 7-{4-[({2-[(4-Fluorophenyl)methyl]-1,3-dioxo-2,3-dihydro-1H-isoindol-5-yl}carbamoyl)methyl]-phenoxy}heptanoic acid]

activity at 10 µM (MMP-13): 37 ± 0.2% | activity at 10 µM (MMP-7 [1]): 98 ± 7.3%
SMILES: O=C(O)CCOc1ccc(CC(=O)Nc2ccc3c(c2)C(=O)N(Cc2ccc(F)cc2)C3=O)cc1 [Compound 14k, 3-{4-[({2-[(4-Fluorophenyl)methyl]-1,3-dioxo-2,3-dihydro-1H-isoindol-5-yl}carbamoyl)methyl]-phenoxy}propanoic acid]

IC50 (MMP-13): 7120 ± 940 nM | IC50 (MMP-7 [1]): 6200 ± 1850 nM
SMILES: O=C(O)CCCCCCCCCOc1ccc(CC(=O)Nc2ccc3c(c2)C(=O)N(Cc2ccccc2)C3=O)cc1 [Compound 14j, 10-(4-{[(2-Benzyl-1,3-dioxo-2,3-dihydro-1H-isoindol-5-yl)carbamoyl]methyl}phenoxy)decanoic acid]

remaining activity at 10 µM (MMP-2 [11]): 98% | IC50 (MMP-13): 1200 nM and 1250 nM | remaining activity at 10 µM (MMP-1 [12]): 100% | remaining activity at 10 µM (MMP-12 [13]): 97% | remaining activity at 10 µM (MMP-8 [14]): 80% | remaining activity at 10 µM (MMP-14 [15]): 91% | remaining activity at 10 µM (MMP-3 [16]): 73% | IC50 (MMP-7 [1]): 2200 nM and 2250 nM | remaining activity at 10 µM (MMP-9 [17]): 87%
SMILES: O=C(O)CCCCCCCCOc1ccc(CC(=O)Nc2ccc3c(c2)C(=O)N(Cc2ccccc2)C3=O)cc1 [Compound 14i, 9-(4-{[(2-Benzyl-1,3-dioxo-2,3-dihydro-1H-isoindol-5-yl)carbamoyl]methyl}phenoxy)nonanoic acid]
